Measurements reported in PubChem BioAssay AID290 (DTP/NCI, 2004).
“And” between values parts separate entries of the source, which are not always exact repeats. Equal entries are not always repeated. Results filed as inconclusive are left out. *1 amine or outer side, *2 acyl side, *3 side chain or, on linkers, in order; H or OH if unused. Where a SMILES comes first, the peptide text is derived from it. Bridges are numbered along the chain shown (N, C = ends). Roman numbers before positions name the chains, in order. [ ]: non-standard residue; d: D form. Actinocin(9to1) = Cc1c2oc3c(C)ccc(C(=O)[*:1])c3nc-2c(C(=O)[*:2])c(N)c1=O; aThr = C[C@H](O)[C@H](N)C(=O)O; NMeV = CN[C@H](C(=O)O)C(C)C; Sar = CNCC(=O)O

System: mice, P1798 lymphosarcoma sc, survival or tumor weight T/C
Assay: NCI In Vivo Anticancer Drug Screen. Data for tumor model P1798 Lymphosarcoma (subcutaneous) in unknown mice
Settings: endpoint: mean tumor weight, higher = larger tumour
Experimental: The antitumor activity of compounds was measured in mice bearing transplantable tumors. Survival or tumor size were measured and the results are expressed as the measurement made in the treated group (T) divided by the measurement made in the vehicle treated control group (C). The tumor model used in this assay is P1798 Lymphosarcoma (subcutaneous) in unknown mice

[1] = dose: 25.0 mg/kg/injection, schedule: Q01DX010 (ip), vehicle: carboxymethylcellulose (CMC)
[2] = dose: 5.0 mg/kg/injection, schedule: Q01DX010 (ip), vehicle: carboxymethylcellulose (CMC)

`N=C(N)c1ccc(Nc2ccc(C(=N)N)cc2)cc1` was tested, and the T/C (dose: 3.0 mg/kg/injection, schedule: Q01DX010 (ip), vehicle: saline) was 105 % of control, the T/C (dose: 6.0 mg/kg/injection, schedule: Q01DX010 (ip), vehicle: saline) was 117 % of control and the T/C (dose: 6.25 mg/kg/injection, schedule: Q01DX010 (ip), vehicle: methylcellulose (MC)) was 66 % of control. The T/C (dose: 12.0 mg/kg/injection, schedule: Q01DX010 (ip), vehicle: saline) was 77 % of control and the T/C (dose: 12.5 mg/kg/injection, schedule: Q01DX010 (ip), vehicle: methylcellulose (MC)) was 77 % of control.
`CC/C(=C(/CC)c1ccc(O)cc1)c1ccc(O)cc1` was tested, and the T/C (dose: 62.5 mg/kg/injection, schedule: Q01DX010 (sc), vehicle: steriod suspending solution) was 64 % of control, the T/C (dose: 125.0 mg/kg/injection, schedule: Q01DX010 (sc), vehicle: steriod suspending solution) was 83 % of control and the T/C (dose: 500.0 mg/kg/injection, schedule: Q01DX010 (sc), vehicle: steriod suspending solution) was 39 % of control.
`C[C@H]1C(=O)O[C@@H]2CCN3CC=C(COC(=O)[C@](C)(O)[C@@]1(C)O)[C@H]23` was tested, and the T/C (dose: 3.75 mg/kg/injection, schedule: Q01DX010 (ip), vehicle: carboxymethylcellulose (CMC)) was 73 % of control, the T/C (dose: 7.5 mg/kg/injection, schedule: Q01DX010 (ip), vehicle: carboxymethylcellulose (CMC)) was 68 % of control and the T/C (dose: 15.0 mg/kg/injection, schedule: Q01DX010 (ip), vehicle: carboxymethylcellulose (CMC)) was 44 % of control. The T/C (dose: 30.0 mg/kg/injection, schedule: Q01DX010 (ip), vehicle: carboxymethylcellulose (CMC)) was 23 % of control.
In the case of `O=C(O)CCCc1ccc(N(CCCl)CCCl)cc1`, the T/C (dose: 3.12 mg/kg/injection, schedule: Q01DX010 (ip), vehicle: carboxymethylcellulose (CMC)) is reported as 86 % of control, the T/C (dose: 6.25 mg/kg/injection, schedule: Q01DX010 (ip), vehicle: carboxymethylcellulose (CMC)) is reported as 89 % of control and the T/C (dose: 12.5 mg/kg/injection, schedule: Q01DX010 (ip), vehicle: carboxymethylcellulose (CMC)) is reported as 104 % of control. For the same compound, the T/C [1] was 73 % of control.
`O=C1CCC(N2C(=O)c3ccccc3C2=O)C(=O)N1` (stereo unspecified) was tested, and the T/C (dose: 18.75 mg/kg/injection, schedule: Q01DX010 (ip), vehicle: carboxymethylcellulose (CMC)) was 122 % of control, the T/C (dose: 37.5 mg/kg/injection, schedule: Q01DX010 (ip), vehicle: carboxymethylcellulose (CMC)) was 68 % of control and the T/C (dose: 75.0 mg/kg/injection, schedule: Q01DX010 (ip), vehicle: carboxymethylcellulose (CMC)) was 92 % of control. For the same compound, the T/C (dose: 150.0 mg/kg/injection, schedule: Q01DX010 (ip), vehicle: carboxymethylcellulose (CMC)) was 83 % of control.
In the case of `CSc1ncnc2nc[nH]c12`, the T/C [1] is reported as 45 % of control, the T/C (dose: 50.0 mg/kg/injection, schedule: Q01DX010 (ip), vehicle: carboxymethylcellulose (CMC)) is reported as 61 % of control and the T/C (dose: 100.0 mg/kg/injection, schedule: Q01DX010 (ip), vehicle: carboxymethylcellulose (CMC)) is reported as 56 % of control.
For `C[C@]12CCC(=O)C=C1CC[C@@H]1[C@@H]2C(=O)C[C@@]2(C)[C@H]1CC[C@]2(O)C(=O)CO`, the T/C (dose: 100.0 mg/kg/injection, schedule: Q01DX010 (sc), vehicle: steriod suspending solution) was 7 % of control and the T/C (dose: 200.0 mg/kg/injection, schedule: Q01DX010 (sc), vehicle: steriod suspending solution) was 1 % of control.
In the case of `c1ccc(CNc2ncnc3[nH]ncc23)cc1`, the T/C (dose: 15.6 mg/kg/injection, schedule: Q01DX010 (ip), vehicle: carboxymethylcellulose (CMC)) is reported as 82 % of control.
In the case of `O=C(Nc1ccc(C2=NCCN2)cc1)c1ccc(C(=O)Nc2ccc(C3=NCCN3)cc2)cc1`, the T/C (dose: 8.0 mg/kg/injection, schedule: Q01DX010 (ip), vehicle: saline) is reported as 67 % of control, the T/C (dose: 16.0 mg/kg/injection, schedule: Q01DX010 (ip), vehicle: saline) is reported as 65 % of control and the T/C (dose: 32.0 mg/kg/injection, schedule: Q01DX010 (ip), vehicle: saline) is reported as 109 % of control. For the same compound, the T/C (dose: 64.0 mg/kg/injection, schedule: Q01DX010 (ip), vehicle: saline) was 49 % of control.
`O=c1cnn(C2OC(CO)C(O)C2O)c(=O)[nH]1` (stereo unspecified) was tested, and the T/C (dose: 125.0 mg/kg/injection, schedule: Q01DX010 (ip), vehicle: water) was 93 % of control, the T/C (dose: 250.0 mg/kg/injection, schedule: Q01DX010 (ip), vehicle: water) was 67 % of control and the T/C (dose: 500.0 mg/kg/injection, schedule: Q01DX010 (ip), vehicle: water) was 77 % of control. The T/C (dose: 1000.0 mg/kg/injection, schedule: Q01DX010 (ip), vehicle: water) was 75 % of control.
In the case of `CC12C=CC(=O)C=C1CCC1C3CCC(O)(C(=O)CO)C3(C)CC(O)C12F` (stereo unspecified), the T/C (dose: 3.0 mg/kg/injection, schedule: Q01DX010 (sc), vehicle: steriod suspending solution) is reported as 85 % of control, the T/C (dose: 6.0 mg/kg/injection, schedule: Q01DX010 (sc), vehicle: steriod suspending solution) is reported as 58 % of control and the T/C (dose: 12.0 mg/kg/injection, schedule: Q01DX010 (sc), vehicle: steriod suspending solution) is reported as 56 % of control.
With `S=c1nc[nH]c2nc[nH]c12` the T/C (dose: 3.12 mg/kg/injection, schedule: Q01DX010 (ip), vehicle: other) was 103 % of control, the T/C (dose: 6.25 mg/kg/injection, schedule: Q01DX010 (ip), vehicle: other) was 83 % of control and the T/C (dose: 12.5 mg/kg/injection, schedule: Q01DX010 (ip), vehicle: other) was 74 % of control and 77 % of control and 88 % of control. The T/C (dose: 18.7 mg/kg/injection, schedule: Q01DX010 (ip), vehicle: other) was 45 % of control and the T/C (dose: 34.0 mg/kg/injection, schedule: Q01DX001 (ip), vehicle: carboxymethylcellulose (CMC)) was 92 % of control.
For `N#[N+]c1cnc([O-])[nH]c1=O`, the T/C [2] was 105 % of control and the T/C (dose: 10.0 mg/kg/injection, schedule: Q01DX010 (ip), vehicle: carboxymethylcellulose (CMC)) was 47 % of control.
With `Nc1nc2n[nH]nc2c(=O)[nH]1` the T/C (dose: 50.0 mg/kg/injection, schedule: Q01DX010 (ip), vehicle: other) was 67 % of control and 71 % of control and 88 % of control and the T/C (dose: 200.0 mg/kg/injection, schedule: Q01DX010 (ip), vehicle: other) was 46 % of control.
For `NC(Cc1ccc(N(CCCl)CCCl)cc1)C(=O)O` (stereo unspecified), the T/C (dose: 0.5 mg/kg/injection, schedule: Q01DX010 (ip), vehicle: saline) was 86 % of control, the T/C (dose: 0.63 mg/kg/injection, schedule: Q01DX010 (ip), vehicle: carboxymethylcellulose (CMC)) was 117 % of control and the T/C (dose: 1.0 mg/kg/injection, schedule: Q01DX010 (ip), vehicle: saline) was 67 % of control. For the same compound, the T/C (dose: 1.25 mg/kg/injection, schedule: Q01DX010 (ip), vehicle: carboxymethylcellulose (CMC)) was 110 % of control, the T/C (dose: 1.25 mg/kg/injection, schedule: Q01DX010 (ip), vehicle: saline) was 89 % of control and the T/C (dose: 2.0 mg/kg/injection, schedule: Q01DX010 (ip), vehicle: saline) was 77 % of control. For the same compound, the T/C (dose: 4.0 mg/kg/injection, schedule: Q01DX010 (ip), vehicle: saline) was 60 % of control, the T/C [2] was 40 % of control and the T/C (dose: 5.0 mg/kg/injection, schedule: Q01DX010 (ip), vehicle: saline) was 36 % of control. For the same compound, the T/C (dose: 10.0 mg/kg/injection, schedule: Q01DX010 (ip), vehicle: saline) was 5 % of control.
For `CN(C)c1nc(N(C)C)nc(N(C)C)n1`, the T/C (dose: 62.5 mg/kg/injection, schedule: Q01DX010 (ip), vehicle: carboxymethylcellulose (CMC)) was 119 % of control, the T/C (dose: 250.0 mg/kg/injection, schedule: Q01DX010 (ip), vehicle: carboxymethylcellulose (CMC)) was 88 % of control and the T/C (dose: 500.0 mg/kg/injection, schedule: Q01DX010 (ip), vehicle: carboxymethylcellulose (CMC)) was 106 % of control.
In the case of `Cc1c2oc3c(C)ccc(C(=O)N[C@@H]4C(=O)N[C@H](C(C)C)C(=O)N5CCC[C@H]5C(=O)N(C)CC(=O)N(C)[C@@H](C(C)C)C(=O)O[C@H]4C)c3nc-2c(C(=O)N[C@@H]2C(=O)N[C@H](C(C)C)C(=O)N3CCC[C@H]3C(=O)N(C)CC(=O)N(C)[C@@H](C(C)C)C(=O)O[C@H]2C)c(N)c1=O` (I: [aThr][dV]P[Sar][NMeV] / II: [aThr][dV]P[Sar][NMeV]; ester I:1-I:C, II:1-II:C; linker I:N-II:N via Actinocin(9to1)), the T/C (dose: 2.0 micrograms/kg/injection, schedule: Q01DX010 (ip), vehicle: saline) is reported as 117 % of control and the T/C (dose: 20.0 micrograms/kg/injection, schedule: Q01DX010 (ip), vehicle: saline) is reported as 46 % of control.
For `CC(=O)[C@H]1CC[C@H]2[C@@H]3C[C@H](C)C4=CC(=O)CC[C@]4(C)[C@H]3C(=O)C[C@]12C`, the T/C (dose: 12.5 mg/kg/injection, schedule: Q01DX010 (sc), vehicle: carboxymethylcellulose (CMC)) was 101 % of control, the T/C (dose: 25.0 mg/kg/injection, schedule: Q01DX010 (sc), vehicle: carboxymethylcellulose (CMC)) was 100 % of control and the T/C (dose: 50.0 mg/kg/injection, schedule: Q01DX010 (sc), vehicle: carboxymethylcellulose (CMC)) was 115 % of control. The T/C (dose: 100.0 mg/kg/injection, schedule: Q01DX010 (sc), vehicle: carboxymethylcellulose (CMC)) was 112 % of control, the T/C (dose: 200.0 mg/kg/injection, schedule: Q01DX010 (sc), vehicle: carboxymethylcellulose (CMC)) was 117 % of control and the T/C (dose: 400.0 mg/kg/injection, schedule: Q01DX010 (sc), vehicle: carboxymethylcellulose (CMC)) was 108 % of control.
With `CC(=O)Nc1ccc2nc3ccc(NC(C)=O)cc3[n+](-c3ccccc3)c2c1` the T/C (dose: 25.0 mg/kg/injection, schedule: Q01DX010 (ip), vehicle: saline) was 56 % of control, the T/C (dose: 50.0 mg/kg/injection, schedule: Q01DX010 (ip), vehicle: saline) was 21 % of control and the T/C (dose: 100.0 mg/kg/injection, schedule: Q01DX010 (ip), vehicle: saline) was 12 % of control. For the same compound, the T/C (dose: 200.0 mg/kg/injection, schedule: Q01DX010 (ip), vehicle: saline) was 3 % of control.
